Experimental findings from ChEMBL document CHEMBL1142142, “Synergistic activities of azithromycin and amphotericin B against Naegleria fowleri in vitro and in a mouse model of primary amebic meningoencephalitis” (Antimicrob Agents Chemother, 2007) are described below.

One may read the IC50 as the concentration at which inhibition is half-maximal. A low value points to inhibition by little substance.

The source made the active and inactive calls. The rule behind the calls is not given here.

The subject of assay [1] is Mus musculus. Nature of the assay: Protection against Naegleria fowleri Lee (M67) infection in CD1 mouse at 2.5 mg/kg/day, ip. The conditions noted are these: route intraperitoneal. It counts as functional.
The test system of assay [2] is Naegleria fowleri. Put plainly: Antimicrobial activity against Naegleria fowleri Lee (M67) at day 2. It counts as functional, organism-based. The settings on record: 48 h.
The subject of assay [3] is Mus musculus. Nature of the assay: Effect on mortality in Naegleria fowleri Lee (M67) infected CD1 mouse at 2.5 mg/kg, ip in presence of azithromycin. It is filed as functional. The settings on record: route intraperitoneal.
The subject of assay [4] is Naegleria fowleri. Nature of the assay: Antimicrobial activity against Naegleria fowleri Lee (M67) in presence of amphotericin B at 3:1 ratio on day 2. It is filed as functional.
For assay [5], the system named is Mus musculus. Put plainly: Effect on mortality in Naegleria fowleri Lee (M67) infected CD1 mouse at 2.5 mg/kg/day, ip. It is filed as functional. The settings on record: route intraperitoneal.
For assay [6], the system named is Mus musculus. Put plainly: Effect on mean time to death in Naegleria fowleri Lee (M67) infected CD1 mouse at 2.5 mg/kg/day, ip. It counts as functional. The conditions noted are these: route intraperitoneal.
In assay [7] the test system is Mus musculus. Nature of the assay: Effect on mean time to death in Naegleria fowleri Lee (M67) infected CD1 mouse at 2.5 mg/kg, ip in presence of azithromycin. Also noted: dose 2.5 mg/kg. It counts as functional, organism-based.
For assay [8], the system named is Naegleria fowleri. Put plainly: Antimicrobial activity against Naegleria fowleri Lee (M67) in presence of amphotericin B at 1:3 ratio on day 3. It counts as functional.
For assay [9], the system named is Naegleria fowleri. Nature of the assay: Antimicrobial activity against Naegleria fowleri Lee (M67) at day 3. It counts as functional, organism-based. The settings on record: 72 h.
The test system of assay [10] is Mus musculus. Put plainly: Protection against Naegleria fowleri Lee (M67) infection in CD1 mouse at 2.5 mg/kg, ip in presence of azithromycin. It is filed as functional. The conditions noted are these: route intraperitoneal.
Assay [11] deals with Naegleria fowleri. Put plainly: Antimicrobial activity against Naegleria fowleri Lee (M67) in presence of amphotericin B at 1:1 ratio on day 3. It counts as functional.
The subject of assay [12] is Naegleria fowleri. Put plainly: Antimicrobial activity against Naegleria fowleri Lee (M67) in presence of amphotericin B at 1:1 ratio on day 2. It is filed as functional.
Assay [13] has as its system Naegleria fowleri. Nature of the assay: Antimicrobial activity against Naegleria fowleri Lee (M67) in presence of amphotericin B at 1:3 ratio on day 2. It is filed as functional.
Assay [14] relates to Naegleria fowleri. Nature of the assay: Antimicrobial activity against Naegleria fowleri Lee (M67) in presence of amphotericin B at 3:1 ratio on day 3. It is filed as functional.
Assay [15] relates to Naegleria fowleri. Put plainly: Antimicrobial activity against Naegleria fowleri Lee (M67) in presence of azithromycin at 1:1 ratio on day 2. It counts as functional.
For assay [16], the system named is Mus musculus. Nature of the assay: Effect on mean time to death in Naegleria fowleri Lee (M67) infected CD1 mouse at 25 mg/kg/day, ip. It is filed as functional. The conditions noted are these: route intraperitoneal.
The test system of assay [17] is Mus musculus. Nature of the assay: Effect on mortality in Naegleria fowleri Lee (M67) infected CD1 mouse at 25 mg/kg/day, ip. It counts as functional. The conditions noted are these: route intraperitoneal.
The subject of assay [18] is Naegleria fowleri. Nature of the assay: Antimicrobial activity against Naegleria fowleri Lee (M67) in presence of azithromycin at 1:3 ratio on day 2. It counts as functional.
Assay [19] concerns Naegleria fowleri. Nature of the assay: Antimicrobial activity against Naegleria fowleri Lee (M67) in presence of azithromycin at 3:1 ratio on day 3. It counts as functional.
The subject of assay [20] is Naegleria fowleri. Nature of the assay: Antimicrobial activity against Naegleria fowleri Lee (M67) in presence of azithromycin at 3:1 ratio on day 2. It counts as functional.
Assay [21] relates to Naegleria fowleri. Put plainly: Antimicrobial activity against Naegleria fowleri Lee (M67) in presence of azithromycin at 1:3 ratio on day 3. It counts as functional.
In assay [22] the test system is Mus musculus. Put plainly: Protection against Naegleria fowleri Lee (M67) infection in CD1 mouse at 25 mg/kg/day, ip. It counts as functional. The conditions noted are these: route intraperitoneal.
Assay [23] deals with Naegleria fowleri. Put plainly: Antimicrobial activity against Naegleria fowleri Lee (M67) in presence of azithromycin at 1:1 ratio on day 3. It is filed as functional.

For the molecule `C[C@@H]1[C@H](O)[C@@H](C)/C=C/C=C/C=C/C=C/C=C/C=C/C=C/[C@H](O[C@@H]2O[C@H](C)[C@@H](O)[C@H](N)[C@@H]2O)C[C@@H]2O[C@](O)(C[C@@H](O)C[C@@H](O)[C@H](O)CC[C@@H](O)C[C@@H](O)CC(=O)O[C@H]1C)C[C@H](O)[C@H]2C(=O)O` [AMPHOTERICIN B], the Activity in assay [1] was found to be 27%; in assay [3], 0%; in assay [5], 55%; in assay [6], 7 days; in assay [10] it was 100%. For the same molecule, the 50% inhibitory concentration (IC50) worked out at 26.4 nM in assay [2] and 18.3 nM in assay [9]. In addition, the FIC50 in assay [4] is 0.254; in assay [8] it was 0.167; in assay [11] it was 0.309; in assay [12], 0.241; in assay [13] it was 0.311; in assay [14], 0.303. In addition, in [7], the result was Active.

As for `CC[C@H]1OC(=O)[C@H](C)[C@@H](O[C@H]2C[C@@](C)(OC)[C@@H](O)[C@H](C)O2)[C@H](C)[C@@H](O[C@@H]2O[C@H](C)C[C@H](N(C)C)[C@H]2O)[C@](C)(O)C[C@@H](C)CN(C)[C@H](C)[C@@H](O)[C@]1(C)O` [AZITHROMYCIN], the half-inhibitory concentration (IC50) in assay [2] came to 2.6 nM; in [9] it was 3.1 nM. Besides, the FIC50 in assay [15] was found to be 0.238; in assay [18], 0.464; in assay [19] it was 0.103; in [20] it was 0.088; in assay [21], 0.55; in assay [23], 0.308. Besides, the Activity in assay [16] is 12.4 days; in [17], 45%; in [22] it was 40%.
